Source: US20230233569A1 (Revolution Medicines, Inc., priority 2020, published 2023)
Read-outs that look alike come from different tables or passages of the source.

What was measured:
[1] = system: AsPC-1 (K-Ras G12D); assay: Potency assay: pERK; type: cell-based; details: Homo sapiens
[2] = biological target: KRAS G12C (Homo sapiens, UniProt P01116+P62937, G12C); assay: Ras-Raf disruption / FRET / MOA assay (BRAF RBD); type: biochemical; details: KRAS G12C FRET data IC50, Ras-Raf disruption, with Cyclophilin A
Procedure, shortened: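 His6-K-Ras G12C-GMPPNP (12.5 nM), GST-BRAF RBD (50 nM) and tagless Cyclophilin A (25 μM) incubated 3 h at 25 °C with compound (10-point 3-fold series from 30 μM), pH 7.3 HEPES buffer. Anti-His Eu/anti-GST APC added for 1.5 h; decreased TR-FRET ratio vs DMSO gives IC50.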

[3] = system: AsPC-1 (K-Ras G12D); assay: CellTiter-Glo cell viability assay; type: cell-based; details: Homo sapiens, ASPC1, 120 h
Method: Determination of Cell Viability in RAS Mutant Cancer Cell Lines
Protocol: CellTiter-Glo® Cell Viability Assay
Note—The following protocol describes a procedure for monitoring cell viability of K-Ras mutant cancer cell lines in response to a compound of the invention. Other RAS isoforms may be employed, though the number of cells to be seeded will vary based on cell line used.
Test compounds (132.5 nL) were directly dispensed into the assay plates containing cells. […] On day 5, assay plates and their contents were equilibrated to room temperature for approximately 30 minutes. […] Luminescence was measured using the PerkinElmer Enspire. Data were normalized by the following: (Sample signal/Avg. DMSO)*100. The data were fit using a four-parameter logistic fit.

[4] = biological target: KRAS G13D (Homo sapiens, UniProt P01116+P62937, G13D); assay: Ras-Raf disruption / FRET / MOA assay (BRAF RBD); type: biochemical; details: KRAS G13D FRET data IC50, Ras-Raf disruption, with Cyclophilin A
Procedure, shortened: (§1)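 TR-FRET in 25 mM HEPES pH 7.3, 100 mM NaCl, 5 mM MgCl2, 0.1% BSA, 0.002% Tween20 with 25 μM Cyclophilin A, 12.5 nM His6-Ras-GMPPNP, 50 nM GST-BRAF RBD; compound 10-point 3-fold series from 30 μM. After 3 h at 25 °C, Eu anti-His/APC anti-GST added for 1.5 h; IC50 from ratio decrease versus DMSO.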

[5] = biological target: NRAS G12C (Homo sapiens, UniProt P01111+P62937, G12C); assay: Ras-Raf disruption / FRET / MOA assay (BRAF RBD); type: biochemical; details: NRAS G12C FRET data IC50, NRAS G12C
Procedure, shortened: as §1

[6] = biological target: KRAS WT (Homo sapiens, UniProt P01116+P62937); assay: Ras-Raf disruption / FRET / MOA assay (BRAF RBD); type: biochemical; details: KRAS WT FRET data IC50, Ras-Raf disruption, with Cyclophilin A
Procedure, shortened: as §1

[7] = biological target: KRAS G12S (Homo sapiens, UniProt P01116+P62937, G12S); assay: Ras-Raf disruption / FRET / MOA assay (BRAF RBD); type: biochemical; details: KRAS G12S FRET data IC50, Ras-Raf disruption, with Cyclophilin A
Procedure, shortened: as §1

[8] = biological target: KRAS G12V (Homo sapiens, UniProt P01116+P62937, G12V); assay: Ras-Raf disruption / FRET / MOA assay (BRAF RBD); type: biochemical; details: KRAS G12V FRET data IC50, Ras-Raf disruption, with Cyclophilin A
Procedure, shortened: as §1

[9] = biological target: KRAS G13C (Homo sapiens, UniProt P01116+P62937, G13C); assay: Ras-Raf disruption / FRET / MOA assay (BRAF RBD); type: biochemical; details: KRAS G13C FRET data IC50, Ras-Raf disruption, with Cyclophilin A
Procedure, shortened: as §1

[10] = biological target: KRAS G12D (Homo sapiens, UniProt P01116+P62937, G12D); assay: Ras-Raf disruption / FRET / MOA assay (BRAF RBD); type: biochemical; details: KRAS G12D FRET data IC50, Ras-Raf disruption, with Cyclophilin A
Procedure, shortened: as §1

[11] = read-out: AsPC-1 Cell Viability assay data IC50, K-Ras G12D, 5-day treatment
[12] = ASPC1, AsPC-1 KRAS G12D, read-out: pERK EC50
[13] = K-Ras G12D, 5-day treatment, read-out: AsPC-1 Cell Viability assay data IC50

KRAS G12V, sequence (P01116 1-169 isoform P01116-2 G12V limits assumed): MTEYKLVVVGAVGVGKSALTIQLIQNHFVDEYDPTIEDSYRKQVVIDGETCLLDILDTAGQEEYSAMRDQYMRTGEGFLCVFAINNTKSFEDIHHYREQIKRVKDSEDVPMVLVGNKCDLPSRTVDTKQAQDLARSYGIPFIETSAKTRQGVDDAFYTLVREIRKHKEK
KRAS G12V, sequence (P62937 whole entry): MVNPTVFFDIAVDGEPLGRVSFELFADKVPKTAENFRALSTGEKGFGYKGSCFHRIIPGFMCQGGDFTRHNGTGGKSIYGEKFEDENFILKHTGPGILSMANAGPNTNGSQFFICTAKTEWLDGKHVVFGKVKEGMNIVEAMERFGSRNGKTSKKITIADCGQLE
KRAS G12D, sequence (P01116 1-169 isoform P01116-2 G12D limits assumed): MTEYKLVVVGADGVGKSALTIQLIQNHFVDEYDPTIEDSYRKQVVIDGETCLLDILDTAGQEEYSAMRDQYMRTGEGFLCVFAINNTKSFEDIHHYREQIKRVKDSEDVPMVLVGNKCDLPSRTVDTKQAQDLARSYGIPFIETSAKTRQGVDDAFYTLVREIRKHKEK
KRAS G12D, sequence (P62937 whole entry): as the sequence (P62937 whole entry) above
KRAS WT, sequence (P01116 1-169 isoform P01116-2 limits assumed): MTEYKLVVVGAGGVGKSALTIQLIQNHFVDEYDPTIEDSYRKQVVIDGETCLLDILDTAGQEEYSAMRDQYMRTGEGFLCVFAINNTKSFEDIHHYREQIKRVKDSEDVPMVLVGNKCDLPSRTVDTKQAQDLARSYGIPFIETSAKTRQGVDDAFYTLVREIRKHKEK
KRAS WT, sequence (P62937 whole entry): as the sequence (P62937 whole entry) above
KRAS G13D, sequence (P01116 1-169 isoform P01116-2 G13D limits assumed): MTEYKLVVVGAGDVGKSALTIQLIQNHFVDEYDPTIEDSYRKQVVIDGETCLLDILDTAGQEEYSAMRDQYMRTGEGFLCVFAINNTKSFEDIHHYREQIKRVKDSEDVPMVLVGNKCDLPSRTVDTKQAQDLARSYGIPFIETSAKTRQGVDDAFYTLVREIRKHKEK
KRAS G13D, sequence (P62937 whole entry): as the sequence (P62937 whole entry) above
KRAS G13C, sequence (P01116 1-169 isoform P01116-2 G13C limits assumed): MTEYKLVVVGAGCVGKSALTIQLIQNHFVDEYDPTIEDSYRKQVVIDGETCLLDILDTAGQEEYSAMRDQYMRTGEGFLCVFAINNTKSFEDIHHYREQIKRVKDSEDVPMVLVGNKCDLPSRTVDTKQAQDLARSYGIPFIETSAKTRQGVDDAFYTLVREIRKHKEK
KRAS G13C, sequence (P62937 whole entry): as the sequence (P62937 whole entry) above
KRAS G12S, sequence (P01116 1-169 isoform P01116-2 G12S limits assumed): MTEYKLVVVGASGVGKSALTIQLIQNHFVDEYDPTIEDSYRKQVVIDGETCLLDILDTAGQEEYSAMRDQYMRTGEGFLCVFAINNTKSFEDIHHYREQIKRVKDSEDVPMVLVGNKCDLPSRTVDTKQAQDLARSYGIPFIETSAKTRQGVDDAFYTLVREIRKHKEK
KRAS G12S, sequence (P62937 whole entry): as the sequence (P62937 whole entry) above
NRAS G12C, sequence (P01111 whole entry G12C): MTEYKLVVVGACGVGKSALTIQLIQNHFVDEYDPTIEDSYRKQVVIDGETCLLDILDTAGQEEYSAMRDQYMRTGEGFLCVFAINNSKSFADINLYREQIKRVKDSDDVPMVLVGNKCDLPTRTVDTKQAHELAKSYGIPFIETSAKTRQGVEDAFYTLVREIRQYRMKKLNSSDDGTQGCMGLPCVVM
NRAS G12C, sequence (P62937 whole entry): as the sequence (P62937 whole entry) above
KRAS G12C, sequence (P01116 1-169 isoform P01116-2 G12C limits assumed): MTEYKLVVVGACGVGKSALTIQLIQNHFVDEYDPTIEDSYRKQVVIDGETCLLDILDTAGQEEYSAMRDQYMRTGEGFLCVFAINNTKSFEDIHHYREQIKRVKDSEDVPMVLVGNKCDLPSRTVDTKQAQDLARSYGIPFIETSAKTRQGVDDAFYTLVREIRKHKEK
KRAS G12C, sequence (P62937 whole entry): as the sequence (P62937 whole entry) above

| SMILES | EC50 ([1]; ASPC1, read-out: pERK EC50) [nM] | IC50 [2] [nM] | IC50 [3, 11] [nM] | IC50 [4] [nM] | IC50 [5] [nM] | IC50 [6] [nM] | IC50 [7] [nM] | IC50 [8] [nM] | IC50 [9] [nM] | IC50 [10] [nM] | EC50 [1, 12] [nM] | IC50 [3, 13] [nM] |
| --- | --- | --- | --- | --- | --- | --- | --- | --- | --- | --- | --- | --- |
| CCn1c(-c2cnccc2COC)c2c3cc(ccc31)-c1cc(O)cc(c1)C[C@H](NC(=O)[C@H](C(C)C)N(C)C(=O)CN(C)C(=O)C1CN1)C(=O)N1CCC[C@H](N1)C(=O)OCC(C)(C)C2 (stereo partly shown) [Example 33] | < 5000 | 10 to 100 |  |  |  |  |  |  |  |  |  |  |
| CCn1c(-c2cnccc2COC)c2c3cc(ccc31)-c1cc(O)cc(c1)C[C@H](NC(=O)[C@H](C(C)C)N(C)C(=O)CN(C)C(=O)[C@H]1N[C@H]1C(=O)OC)C(=O)N1CCC[C@H](N1)C(=O)OCC(C)(C)C2 [Example 51] | < 5000 |  | > 10000 |  |  |  |  |  |  |  |  |  |
| CCn1c(-c2cnccc2COC)c2c3cc(ccc31)-c1cc(O)cc(c1)C[C@H](NC(=O)[C@H](C(C)C)N(C)C(=O)CN(C)C(=O)[C@H]1N[C@H]1C1CC1)C(=O)N1CCC[C@H](N1)C(=O)OCC(C)(C)C2 [Example 104] | < 5000 |  | 1000 to 10000 |  |  |  |  |  |  |  |  |  |
| CCn1c(-c2cnccc2COC)c2c3cc(ccc31)-c1cc(O)cc(c1)C[C@H](NC(=O)[C@H](C(C)C)N(C)C(=O)CN(C)C(=O)[C@@H]1N[C@@H]1C)C(=O)N1CCC[C@H](N1)C(=O)OCC(C)(C)C2 [Example 105] | < 5000 |  | 1000 to 10000 |  |  |  |  |  |  |  |  |  |
| CCn1c(-c2cnccc2COC)c2c3cc(ccc31)-c1cc(O)cc(c1)C[C@H](NC(=O)[C@H](C(C)C)N(C)C(=O)CN(C)C(=O)[C@@H]1N[C@@H]1c1ccccc1)C(=O)N1CCC[C@H](N1)C(=O)OCC(C)(C)C2 [Example 110] | < 5000 |  | 1000 to 10000 |  |  |  |  |  |  |  |  |  |
| CCn1c(-c2cccnc2[C@H](C)OC)c2c3cc(ccc31)-c1cc(O)cc(c1)C[C@H](NC(=O)[C@H](C(C)C)N(C)C(=O)[C@@H](C)N(C)C(=O)[C@H]1CN1)C(=O)N1CCC[C@H](N1)C(=O)OCC(C)(C)C2 [Example 114] | < 5000 | 10 to 100 | 1000 to 10000 | 1000 to 10000 | 10 to 100 | 1000 to 10000 | 1000 to 10000 | 1000 to 10000 | 100 to 1000 | 1000 to 10000 |  |  |
| CCn1c(-c2cccnc2[C@H](C)OC)c2c3cc(ccc31)-c1cc(O)cc(c1)C[C@H](NC(=O)[C@H](C(C)C)N(C)C(=O)CN(C)C(=O)[C@H]1N[C@@H]1C1CC1)C(=O)N1CCC[C@H](N1)C(=O)OCC(C)(C)C2 [Example 135] |  | < 10 | 100 to 1000 | 10 to 100 | < 10 | 10 to 100 | < 10 | 10 to 100 | < 10 | 10 to 100 |  |  |
| CCn1c(-c2cccnc2[C@H](C)OC)c2c3cc(ccc31)-c1cc(O)cc(c1)C[C@H](NC(=O)[C@H](C(C)C)N(C)C(=O)CNC(=O)[C@H]1CN1)C(=O)N1CCC[C@H](N1)C(=O)OCC(C)(C)C2 [Example 140] | < 5000 | < 10 | 1000 to 10000 | 10 to 100 | < 10 | 10 to 100 | 10 to 100 | 10 to 100 | < 10 | 10 to 100 |  |  |
| CCn1c(-c2cccnc2[C@H](C)OC)c2c3cc(ccc31)-c1cc(O)cc(c1)C[C@H](NC(=O)[C@H](C(C)C)N(C)C(=O)CNC(=O)[C@@H]1CN1)C(=O)N1CCC[C@H](N1)C(=O)OCC(C)(C)C2 [Example 147] | < 5000 | 10 to 100 | 1000 to 10000 | 100 to 1000 | 10 to 100 | 10 to 100 | 10 to 100 | 10 to 100 | 10 to 100 | 100 to 1000 |  |  |
| CCn1c(-c2cccnc2[C@H](C)OC)c2c3cc(ccc31)-c1cc(O)cc(c1)C[C@H](NC(=O)[C@H](C(C)C)N(C)C(=O)[C@H]1CCCN1C(=O)[C@@H]1CN1)C(=O)N1CCC[C@H](N1)C(=O)OCC(C)(C)C2 [Example 151] | < 5000 | < 10 | 1000 to 10000 | 100 to 1000 | < 10 | 100 to 1000 | 100 to 1000 | 10 to 100 | 100 to 1000 | 100 to 1000 |  |  |
| CCn1c(-c2cccnc2[C@H](C)OC)c2c3cc(ccc31)-c1cc(O)cc(c1)C[C@H](NC(=O)[C@H](C(C)C)N(C)C(=O)[C@H]1CCCN1C(=O)[C@H]1CN1)C(=O)N1CCC[C@H](N1)C(=O)OCC(C)(C)C2 [Example 152] | < 5000 | 10 to 100 | 1000 to 10000 | 100 to 1000 | 10 to 100 | 100 to 1000 | 100 to 1000 | 100 to 1000 | 10 to 100 | 100 to 1000 |  |  |
| CCn1c(-c2cccnc2[C@H](C)OC)c2c3cc(ccc31)-c1cc(O)cc(c1)C[C@H](NC(=O)[C@H](C(C)C)N(C)C(=O)[C@H]1CC[C@@H](C)N1C(=O)[C@@H]1CN1)C(=O)N1CCC[C@H](N1)C(=O)OCC(C)(C)C2 [Example 153] | < 5000 | 10 to 100 | 1000 to 10000 | 100 to 1000 | 10 to 100 | 100 to 1000 | 100 to 1000 | 100 to 1000 | 100 to 1000 | 100 to 1000 |  |  |
| CCn1c(-c2cccnc2[C@H](C)OC)c2c3cc(ccc31)-c1cc(O)cc(c1)C[C@H](NC(=O)[C@H](C(C)C)N(C)C(=O)[C@H]1CC[C@@H](C)N1C(=O)[C@H]1CN1)C(=O)N1CCC[C@H](N1)C(=O)OCC(C)(C)C2 [Example 154] | < 5000 | 10 to 100 | 1000 to 10000 | 1000 to 10000 | 10 to 100 | 100 to 1000 | 100 to 1000 | 100 to 1000 | 100 to 1000 | 1000 to 10000 |  |  |
| CCn1c(-c2cccnc2[C@H](C)OC)c2c3cc(ccc31)-c1cc(O)cc(c1)C[C@H](NC(=O)[C@H](C(C)C)N(C)C(=O)CN(C)C(=O)[C@H]1CN1CCO)C(=O)N1CCC[C@H](N1)C(=O)OCC(C)(C)C2 (stereo partly shown) [Example 161] | < 5000 | < 10 | 1000 to 10000 | 100 to 1000 | < 10 | 10 to 100 | 10 to 100 | 10 to 100 | 10 to 100 | 100 to 1000 |  |  |
| CCn1c(-c2cccnc2[C@H](C)OC)c2c3cc(ccc31)-c1cc(O)cc(c1)C[C@H](NC(=O)[C@H](C(C)C)N(C)C(=O)CN(C)C(=O)[C@@H]1CN1CCO)C(=O)N1CCC[C@H](N1)C(=O)OCC(C)(C)C2 (stereo partly shown) [Example 162] | < 5000 | < 10 | 1000 to 10000 | 10 to 100 | < 10 | 10 to 100 | 10 to 100 | 10 to 100 | 10 to 100 | 100 to 1000 |  |  |
| CCn1c(-c2cccnc2[C@H](C)OC)c2c3cc(ccc31)-c1cc(O)cc(c1)C[C@H](NC(=O)[C@@H](C(C)C)N(C)C(=O)[C@@]1(C)CCCN1C(=O)[C@H]1CN1)C(=O)N1CCC[C@H](N1)C(=O)OCC(C)(C)C2 [Example 240] |  |  |  |  |  |  |  |  |  |  | < 5000 | 1000 to 10000 |
| CCn1c(-c2cccnc2[C@H](C)OC)c2c3cc(ccc31)-c1cc(O)cc(c1)C[C@H](NC(=O)[C@@H](C(C)C)N(C)C(=O)[C@@]1(C)CCCN1C(=O)[C@@H]1CN1)C(=O)N1CCC[C@H](N1)C(=O)OCC(C)(C)C2 [Example 242] |  |  |  |  |  |  |  |  |  |  | < 5000 | 1000 to 10000 |
| CCn1c(-c2cccnc2[C@H](C)OC)c2c3cc(ccc31)-c1cc(O)cc(c1)C[C@H](NC(=O)[C@H](C(C)C)N(C)C(=O)[C@]13C[C@H]1CCN3C(=O)[C@H]1CN1)C(=O)N1CCC[C@H](N1)C(=O)OCC(C)(C)C2 [Example 244] |  |  |  |  |  |  |  |  |  |  | < 5000 | 1000 to 10000 |
